Assay results taken from paper PMC10507807, “De novo design of a stapled peptide targeting SARS-CoV-2 spike protein receptor-binding domain” (RSC Medicinal Chemistry, 2023).
Starred links: 1 amine or outer side, 2 acyl side, 3 side chain; linkers in the order of their positions; H or OH if unused. Positions of bridges follow the written chain, without caps; N, C: chain ends. Non-standard residues stand in square brackets, D forms with d. Residues, ends and D or L forms follow the SMILES beside them. X1 = C[C@@](CC=[*:3])(N[*:1])C(=O)[*:2]

What was measured:
[1] = system: Vero E6 cells; conditions: MTT, 0.05–50 μM pep39, 48 h
[2] = system: SARS-CoV-2 spike protein RBD; assay type: binding

CSCC[C@@H]1NC(=O)[C@H](CC(N)=O)NC(=O)[C@@H]2CC(=O)NCCCC[C@H](NC(=O)[C@H](Cc3c[nH]c4ccccc34)NC(=O)[C@@H](NC(=O)[C@H](CCCCN)NC(=O)[C@H](Cc3ccc(O)cc3)NC(=O)[C@H](CC(C)C)NC(=O)[C@H](Cc3c[nH]c4ccccc34)NC(=O)[C@H](CCC(=O)O)NC(=O)[C@@H](NC(=O)CNC(C)=O)[C@@H](C)O)C(C)C)C(=O)N[C@@H](C)C(=O)N[C@@H](Cc3ccccc3)C(=O)N[C@@](C)(C/C=C/C[C@@](C)(C(=O)O)NC1=O)C(=O)N2 [pep39] (Ac-GTEWLYKVWKAF[X1]DNM[X1]-OH; lactam 10-14; staple (E) 13-17)
concentration at which significant inhibition of cell growth was observed ([1]; P < 0.05 vs PBS): ≥ 50 µM
concentration above which cell growth is dose dependently inhibited ([1]; vs PBS): higher than 0.5 μM
confirmation of binding to spike protein RBD [2]: able to confirm the binding of pep39 on the surface of the spike protein RBD
maximum micro-cantilever deflection ([2]; pH 7.4): 33.27 nm
minimum micro-cantilever deflection ([2]; pH 7.4): 8.46 nm
